In US8623859B2, “Bradykinin B1 antagonists” (Evotec AG, priority 2008, dated 2014):
Where a name gives a salt, the structure may show the parent alone.

target: T1, human B1 (Homo sapiens, UniProt P46663); test: Calcium flux assay for Bradykinin B1 antagonist, CHO-K1 cell line expressing human B1; type: cell-based; details: CHO-K1 cells expressing human B1, agonist Lys-(Des-Arg)-Bradykinin, read-out: Potency (IC50 value against human B1)
T1 construct: host or cells: CHO-K1
T1 sequence (P46663 1-353): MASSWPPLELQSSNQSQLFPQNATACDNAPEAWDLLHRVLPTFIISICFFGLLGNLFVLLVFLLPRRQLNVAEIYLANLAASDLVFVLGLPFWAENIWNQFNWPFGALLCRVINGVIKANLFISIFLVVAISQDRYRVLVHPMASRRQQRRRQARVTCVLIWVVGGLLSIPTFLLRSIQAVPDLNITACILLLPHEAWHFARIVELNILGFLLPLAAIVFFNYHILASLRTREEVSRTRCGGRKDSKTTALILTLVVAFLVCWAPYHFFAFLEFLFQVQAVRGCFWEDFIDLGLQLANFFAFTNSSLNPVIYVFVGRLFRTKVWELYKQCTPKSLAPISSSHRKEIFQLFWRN
Outline: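 Inhibition of B1 agonist-evoked intracellular Ca2+ rise was followed by continuous fluorescence at 538 nm, with integrated, background-normalized signals plotted versus log compound concentration. Test compounds (eight 10-fold dilutions, triplicate, 1% DMSO final) were added 30 min at 25° C beforehand to Fluo-4AM-loaded human B1 CHO-K1 cells in pH 7.4 assay buffer.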

Row | SMILES | IC50 [µM]
1 | COc1cc(C)c(S(=O)(=O)N(Cc2cc(C(=O)NCc3ccc(CN4CCCC4)cc3)co2)C2CC2)c(C)c1 [Ex 56, 5-({Cyclopropyl[(4-methoxy-2,6-dimethylphenyl)sulfonyl]amino}methyl)-N-[4-(pyrrolidin-1-ylmethyl)benzyl]furan-3-carboxamide] | 0.01 to 0.1
2 | COc1cc(C)c(S(=O)(=O)N(Cc2cc(C(=O)N(C)Cc3ccc(CN4CCCC4)cc3)co2)C2CC2)c(C)c1 [Ex 57, 5-({Cyclopropyl[(4-methoxy-2,6-dimethylphenyl)sulfonyl]amino}methyl)-N-methyl-N-[4-(pyrrolidin-1-ylmethyl)benzyl]furan-3-carboxamide] | 0.01 to 0.1
3 | COc1cc(C)c(S(=O)(=O)N(C)Cc2cc(C(=O)N(C)Cc3ccc(C4=NCCN4)cc3)c(C)o2)c(C)c1 [Ex 58, N-[4-(4,5-dihydro-1H-imidazol-2-yl)benzyl]-5-({[(4-methoxy-2,6-dimethylphenyl)sulfonyl](methyl)amino}methyl)-N,2-dimethylfuran-3-carboxamide] | 0.01 to 0.1
4 | COc1cc(C)c(S(=O)(=O)N(C)Cc2cc(C(=O)N(C)CCc3ccc(C4=NCCN4)cc3)c(C)o2)c(C)c1 [Ex 59, N-{2-[4-(4,5-dihydro-1H-imidazol-2-yl)phenyl]ethyl}-5-({[(4-methoxy-2,6-dimethylphenyl)sulfonyl](methyl)amino}methyl)-N,2-dimethylfuran-3-carboxamide] | 0.1 to 1
5 | COc1cc(C)c(S(=O)(=O)N(C)Cc2cc(C(=O)NCCc3ccc(C4=NCCN4)cc3)c(C)o2)c(C)c1 [Ex 61, N-{2-[4-(4,5-dihydro-1H-imidazol-2-yl)phenyl]ethyl}-5-({[(4-methoxy-2,6-dimethylphenyl)sulfonyl](methyl)amino}methyl)-2-methylfuran-3-carboxamide] | 0.01 to 0.1
6 | COc1cc(C)c(S(=O)(=O)N(C)Cc2ccc(C(=O)N3CCN(C4CCN(C)CC4)CC3)o2)c(C)c1 [Ex 62, 4-Methoxy-N,2,6-trimethyl-N-[(5-{[4-(1-methylpiperidin-4-yl)piperazin-1-yl]carbonyl}furan-2-yl)methyl]benzenesulfonamide] | 0.1 to 1
7 | COc1cc(C)c(S(=O)(=O)N(C)Cc2nsc(C(=O)NCCc3ccc(C4=NCCN4)cc3)n2)c(C)c1 [Ex 63, N-{2-[4-(4,5-dihydro-1H-imidazol-2-yl)phenyl]ethyl}-3-({[(4-methoxy-2,6-dimethylphenyl)sulfonyl](methyl)amino}methyl)-1,2,4-thiadiazole-5-carboxamide] | < 0.01
8 | COc1cc(C)c(S(=O)(=O)N(C)Cc2noc(C(=O)NCCc3ccc(C4=NCCN4)cc3)n2)c(C)c1 [Ex 64, N-{2-[4-(4,5-dihydro-1H-imidazol-2-yl)phenyl]ethyl}-3-({[(4-methoxy-2,6-dimethylphenyl)sulfonyl](methyl)amino}methyl)-1,2,4-oxadiazole-5-carboxamide] | < 0.01
9 | COc1cc(C)c(S(=O)(=O)N(C)Cc2cc(C(=O)N3CCN(C4CCN(C)CC4)CC3)no2)c(C)c1 [Ex 65, 4-Methoxy-N,2,6-trimethyl-N-[(3-{[4-(1-methylpiperidin-4-yl)piperazin-1-yl]carbonyl}isoxazol-5-yl)methyl]benzenesulfonamide] | 0.1 to 1
10 | COc1cc(C)c(S(=O)(=O)N(C)Cc2nc(C(=O)N3CCN(C4CCN(C)CC4)CC3)co2)c(C)c1 [Ex 66, 4-Methoxy-N,2,6-trimethyl-N-[(4-{[4-(1-methylpiperidin-4-yl)piperazin-1-yl]carbonyl}-1,3-oxazol-2-yl)methyl]benzenesulfonamide] | 0.01 to 0.1
11 | COc1cc(C)c(S(=O)(=O)N(C)Cc2nc(C(=O)NCCc3ccc(C4=NCCN4)cc3)co2)c(C)c1 [Ex 67, N-{2-[4-(4,5-dihydro-1H-imidazol-2-yl)phenyl]ethyl}-2-({[(4-methoxy-2,6-dimethylphenyl)sulfonyl](methyl)amino}methyl)-1,3-oxazole-4-carboxamide] | < 0.01
12 | COc1cc(C)c(S(=O)(=O)N(C)Cc2nc(C(=O)NCc3ccc(C4=NCCN4)cc3)co2)c(C)c1 [Ex 68, N-[4-(4,5-dihydro-1H-imidazol-2-yl)benzyl]-2-({[(4-methoxy-2,6-dimethylphenyl)sulfonyl](methyl)amino}methyl)-1,3-oxazole-4-carboxamide] | 0.1 to 1
13 | COc1cc(C)c(S(=O)(=O)N(C)Cc2nc(C(=O)N(C)CCc3ccc(C4=NCCN4)cc3)co2)c(C)c1 [Ex 69, N-{2-[4-(4,5-dihydro-1H-imidazol-2-yl)phenyl]ethyl}-2-({[(4-methoxy-2,6-dimethylphenyl)sulfonyl](methyl)amino}methyl)-N-methyl-1,3-oxazole-4-carboxamide] | < 0.01
14 | COc1cc(C)c(S(=O)(=O)N(C)Cc2nc(C(=O)N(C)Cc3ccc(C4=NCCN4)cc3)co2)c(C)c1 [Ex 70, N-[4-(4,5-dihydro-1H-imidazol-2-yl)benzyl]-2-({[(4-methoxy-2,6-dimethylphenyl)sulfonyl](methyl)amino}methyl)-N-methyl-1,3-oxazole-4-carboxamide] | < 0.01
15 | COc1cc(C)c(S(=O)(=O)N(C)Cc2nc(C(=O)N(C)Cc3ccc(CN4CCCC4)cc3)co2)c(C)c1 [Ex 71, 2({[(4-Methoxy-2,6dimethylphenyl)sulfonyl](methyl)amino}methyl)-N-methyl-N-[4-(pyrrolidin-1-ylmethyl)benzyl]-1,3-oxazole-4-carboxamide] | < 0.01
16 | COc1cc(C)c(S(=O)(=O)N(C)Cc2nc(C(=O)NCc3ccc(CN4CCCC4)cc3)co2)c(C)c1 [Ex 72, 2-({[(4-Methoxy-2,6dimethylphenyl)sulfonyl](methyl)amino}methyl)-N-[4-(pyrrolidin-1-ylmethyl)benzyl]-1,3-oxazole-4-carboxamide] | 0.01 to 0.1
17 | COc1cc(C)c(S(=O)(=O)N(C)Cc2nc(C(=O)N(C)Cc3cccc(CN4CCCC4)c3)co2)c(C)c1 [Ex 73, 2-({[(4-Methoxy-2,6-dimethylphenyl)sulfonyl](methyl)amino}methyl)-N-methyl-N-[3-(pyrrolidin-1-ylmethyl)benzyl]-1,3-oxazole-4-carboxamide] | < 0.01
18 | COc1cc(C)c(S(=O)(=O)N(C)Cc2nc(C(=O)NCc3cccc(CN4CCCC4)c3)co2)c(C)c1 [Ex 74, 2-({[(4-Methoxy-2,6-dimethylphenyl)sulfonyl](methyl)amino}methyl)-N-[3-(pyrrolidin-1-ylmethyl)benzyl]-1,3-oxazole-4-carboxamide] | < 0.01
19 | COc1cc(C)c(S(=O)(=O)N(Cc2nc(C(=O)N(C)Cc3ccc(CN4CCCC4)cc3)co2)C2CC2)c(C)c1 [Ex 75, 2-({Cyclopropyl[(4-methoxy-2,6-dimethylphenyl)sulfonyl]amino}methyl)-N-methyl-N-[4-(pyrrolidin-1-ylmethyl)benzyl]-1,3-oxazole-4-carboxamide] | < 0.01
20 | COc1cc(C)c(S(=O)(=O)N(Cc2nc(C(=O)NCc3ccc(CN4CCCC4)cc3)co2)C2CC2)c(C)c1 [Ex 76, 2-({Cyclopropyl[(4-methoxy-2,6-dimethylphenyl)sulfonyl]amino}methyl)-N-[4-(pyrrolidin-1-ylmethyl)benzyl]-1,3-oxazole-4-carboxamide] | < 0.01
21 | COc1cc(C)c(S(=O)(=O)N(Cc2nc(C(=O)N(C)Cc3cccc(CN4CCCC4)c3)co2)C2CC2)c(C)c1 [Ex 77, 2-({Cyclopropyl[(4-methoxy-2,6-dimethylphenyl)sulfonyl]amino}methyl)-N-methyl-N-[3-(pyrrolidin-1-ylmethyl)benzyl]-1,3-oxazole-4-carboxamide] | < 0.01
22 | COc1cc(C)c(S(=O)(=O)N(Cc2nc(C(=O)NCc3cccc(CN4CCCC4)c3)co2)C2CC2)c(C)c1 [Ex 78, 2-({Cyclopropyl[(4-methoxy-2,6-dimethylphenyl)sulfonyl]amino}methyl)-N-[3-(pyrrolidin-1-ylmethyl)benzyl]-1,3-oxazole-4-carboxamide] | < 0.01
23 | COc1cc(C)c(S(=O)(=O)N(Cc2nc(C(=O)N(C)CCc3ccc(C4=NCCN4)cc3)co2)C2CC2)c(C)c1 [Ex 79, 2-({Cyclopropyl[(4-methoxy-2,6-dimethylphenyl)sulfonyl]amino}methyl)-N-{2-[4-(4,5-dihydro-1H-imidazol-2-yl)phenyl]ethyl}-N-methyl-1,3-oxazole-4-carboxamide] | < 0.01
24 | COc1cc(C)c(S(=O)(=O)N(C)Cc2nc(C(=O)N(C)CCc3ccc(C4=NCCN4)cc3)cs2)c(C)c1 [Ex 80, N-{2-[4-(4,5-dihydro-1H-imidazol-2-yl)phenyl]ethyl}-2-({[(4-methoxy-2,6-dimethylphenyl)sulfonyl](methyl)amino}methyl)-N-methyl-1,3-thiazole-4-carboxamide] | 0.1 to 1
25 | COc1cc(C)c(S(=O)(=O)N(C)Cc2nc(C(=O)N(C)Cc3ccc(C4=NCCN4)cc3)cs2)c(C)c1 [Ex 81, N-[4-(4,5-dihydro-1H-imidazol-2-yl)benzyl]-2-({[(4-methoxy-2,6-dimethylphenyl)sulfonyl](methyl)amino}methyl)-N-methyl-1,3-thiazole-4-carboxamide] | 0.1 to 1
26 | COc1cc(C)c(S(=O)(=O)N(Cc2cc(C(=O)NCc3ccc(C4=NCCN4)cc3)co2)C2CC2)c(C)c1 [Ex 82, 5-({cyclopropyl[(4-methoxy-2,6-dimethylphenyl)sulfonyl]amino}methyl)-N-[4-(4,5-dihydro-1H-imidazol-2-yl)benzyl]furan-3-carboxamide trifluoroacetate] | 0.1 to 1
